Experimental data taken from patent US20160122342A1, “ENHANCER OF ZESTE HOMOLOG 2 INHIBITORS” (GLAXOSMITHKLINE INTELLECTUAL PROPERTY (NO.2) LIMITED, priority 2013, published 2016).
Read-outs that look alike come from different tables or passages of the source.

Tests used:
[1] = rcm bond
[2] = rcm bond, DCM
[3] = from C=CCCc1cc(C)nc(OC)c1CNC(=O)c1cccc(N(CC)C2CCOCC2)c1CC=C, 12-membered ring, Grubbs II (2 x 20 mol%), DCM, 25.3 mM, 25.0 °C, 36.0 h
[4] = from C=CCCc1cc(C)nc(OC)c1CNC(=O)c1ccnc(Cl)c1CC=C, 12-membered ring, Grubbs II (10 mol%), DCM, 10.6 mM, 16.0 h

CCN(c1cccc2c1C/C=C/CCc1cc(C)nc(OC)c1CNC2=O)C1CCC(F)(F)CC1 gave a ring closure, yield after HPLC ([1]; from C=CCCc1cc(C)nc(OC)c1CNC(=O)c1cccc(N(CC)C2CCC(F)(F)CC2)c1CC=C, 12-membered ring, Grubbs II (15 mol%), DCM, 32.1 mM, 25.0 °C, 16.0 h) of 62%.
CCN(c1cccc2c1C/C=C/CCc1cc(C)nc(OC)c1CNC2=O)C1CCOCC1 showed a ring closure, yield after HPLC [1, 3] of 58%.
In the case of CCN(c1cccc2c1C/C=C\CCc1cc(C)nc(OC)c1CNC2=O)C1CCOCC1, the ring closure, yield after HPLC [1, 3] is reported as 23%.
CCN(c1cccc2c1C/C=C\COc1cc(C)nc(OC)c1CNC2=O)C1CCOCC1 gave a ring closure, isolated yield ([2]; from C=CCOc1cc(C)nc(OC)c1CNC(=O)c1cccc(N(CC)C2CCOCC2)c1CC=C, 12-membered ring, Grubbs II (10+10 mol%, then 10 mg), 19.5 mM, 25.0 °C, 132.0 h) of 19%.
Work on CCN(c1cccc2c1C/C=C\Cc1cc(C)nc(OC)c1CNC2=O)[C@H]1CC[C@H](NC(=O)OC(C)(C)C)CC1 yielded a ring closure, yield after HPLC ([1]; from C=CCCc1cc(C)nc(OC)c1CNC(=O)c1cccc(N(CC)[C@H]2CC[C@H](NC(=O)OC(C)(C)C)CC2)c1CC=C, 11-membered ring, Hoveyda-Grubbs (17.5 mol%), DCE, 16.0 mM, 50.0 °C) of 13.7%.
Work on CCN(c1cccc2c1CC=CCCCCc1cc(C)nc(OC)c1CNC2=O)C1CCOCC1 yielded a ring closure, isolated yield ([2]; from C=CCCCCc1cc(C)nc(OC)c1CNC(=O)c1cccc(N(CC)C2CCOCC2)c1CC=C, 14-membered ring, Grubbs II (10 mol%, then ca. 10 mg), 15.8 mM, 25.0 °C, 22.0 h) of 73.1%.
In the case of CCN(c1cccc2c1CC=CCCc1cc(C)nc(OC)c1CNC2=O)[C@H]1CC[C@@H](NC(=O)OC(C)(C)C)CC1, the ring closure, isolated yield ([2]; from C=CCCc1cc(C)nc(OC)c1CNC(=O)c1cccc(N(CC)[C@H]2CC[C@@H](NC(=O)OC(C)(C)C)CC2)c1CC=C, 12-membered ring, Hoveyda-Grubbs II (2 x 20 mol%), 39.8 mM, 55.0 °C, 72.0 h) is reported as 57.8%.
CCN(c1cccc2c1CC=CCOCc1cc(C)nc(OC)c1CNC2=O)C1CCOCC1 gave a ring closure, isolated yield ([2]; from C=CCOCc1cc(C)nc(OC)c1CNC(=O)c1cccc(N(CC)C2CCOCC2)c1CC=C, 13-membered ring, Grubbs II (10 mol%), 20.0 mM, 25.0 °C, 22.0 h) of 54.7%.
Work on COc1cc(Cl)cc2c1CC=CCCCc1cc(C)nc(OC)c1CNC2=O yielded a ring closure, isolated yield ([2]; from C=CCCCc1cc(C)nc(OC)c1CNC(=O)c1cc(Cl)cc(OC)c1CC=C, 13-membered ring, Grubbs II (10 mol%), 19.6 mM, 25.0 °C, 16.0 h) of 76%.
Compound COc1cc(Cl)cc2c1CC=CCCc1cc(C)nc(OC)c1CNC2=O has a ring closure, isolated yield ([2]; from C=CCCc1cc(C)nc(OC)c1CNC(=O)c1cc(Cl)cc(OC)c1CC=C, 12-membered ring, Grubbs II (10 mol%), 19.4 mM, 25.0 °C, 16.0 h) of 69%.
With COc1nc(C)cc2c1CNC(=O)c1ccnc(Cl)c1C/C=C/CC2 the ring closure, yield after HPLC [1, 4] was 37.3%.
For COc1nc(C)cc2c1CNC(=O)c1ccnc(Cl)c1C/C=C\CC2, the ring closure, yield after HPLC [1, 4] was 18.3%.
